Legend:
[1] = tested on: ZEAMX; test: Post-emergence herbicidal effect and crop plant compatibility, greenhouse pot test; type: in vivo, Zea mays; settings: one-leaf stage, rated visually after about 3 weeks vs untreated controls; for plant injury at 20 g/ha / plant injury at 80 g/ha: Zea mays, 504 h; for plant injury at 20 g/ha: read-out: Post-emergence effect at 20 g/ha against ZEAMX in %; for plant injury at 80 g/ha: read-out: Post-emergence effect at 80 g/ha against ZEAMX in %
Procedure, shortened: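 Sandy loam pots, greenhouse. One-leaf stage (2–3 wk after sowing) foliar spray; WP/EC in water + 0.5% additive, 600 l/ha; 20–320 g/ha. Visual score ~3 wk, 0–100% vs untreated.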

[2] = tested on: ABUTH; test: Post-emergence herbicidal effect, greenhouse pot test; type: in vivo, Abutilon theophrasti; settings: Abutilon theophrasti, 504 h, visual rating about 3 weeks after treatment, read-out: Post-emergence effect against ABUTH
Procedure, shortened: (§1)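 Weeds sown in sandy loam, greenhouse-grown 2–3 weeks, then sprayed at one-leaf stage with WP or EC formulations in water plus 0.5% additive at 600 l/ha. Rates 20 to 320 g/ha. Visual rating after about 3 weeks versus untreated controls (100% = plants dead, 0% = like control).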

[3] = tested on: ALOMY; test: as above; type: in vivo, Alopecurus myosuroides; settings: Alopecurus myosuroides, 504 h, 320 g/ha, visual rating about 3 weeks after treatment, read-out: Post-emergence effect against ALOMY
Procedure, shortened: as §1

[4] = tested on: AMARE; test: as above; type: in vivo, Amaranthus retroflexus; settings: Amaranthus retroflexus, 504 h, 320 g/ha, visual rating about 3 weeks after treatment, read-out: Post-emergence effect against AMARE
Procedure, shortened: as §1

[5] = tested on: AVEFA; test: as above; type: in vivo, Avena fatua; settings: Avena fatua, 504 h, visual rating about 3 weeks after treatment, read-out: Post-emergence effect against AVEFA
Procedure, shortened: as §1

[6] = tested on: DIGSA; test: as above; type: in vivo, Digitaria sanguinalis; settings: Digitaria sanguinalis, 504 h, visual rating about 3 weeks after treatment, read-out: Post-emergence effect against DIGSA
Procedure, shortened: as §1

[7] = tested on: ECHCG; test: as above; type: in vivo, Echinochloa crus-galli; settings: Echinochloa crus-galli, 504 h, read-out: Post-emergence effect against ECHCG in %
Procedure, shortened: as §1

[8] = tested on: LOLRI; test: as above; type: in vivo, Lolium rigidum; settings: Lolium rigidum, 504 h, read-out: Post-emergence effect against LOLRI in %
Procedure, shortened: as §1

[9] = tested on: MATIN; test: as above; type: in vivo, Tripleurospermum inodorum; settings: Tripleurospermum inodorum, 504 h, 320 g/ha, read-out: Post-emergence effect against MATIN in %
Procedure, shortened: as §1

[10] = tested on: PHBPU; test: as above; type: in vivo, Ipomoea purpurea; settings: Ipomoea purpurea, 504 h, read-out: Post-emergence effect against PHBPU in %
Procedure, shortened: as §1

[11] = tested on: POLCO; test: as above; type: in vivo, Fallopia convolvulus; settings: Fallopia convolvulus, 504 h, read-out: Post-emergence effect against POLCO in %
Procedure, shortened: as §1

[12] = tested on: SETVI; test: as above; type: in vivo, Setaria viridis; settings: Setaria viridis, 504 h, 320 g/ha, read-out: Post-emergence effect against SETVI in %
Procedure, shortened: as §1

[13] = tested on: VERPE; test: as above; type: in vivo, Veronica persica; settings: Veronica persica, 504 h, 320 g/ha, read-out: Post-emergence effect against VERPE in %
Procedure, shortened: as §1

[14] = tested on: VIOTR; test: as above; type: in vivo, Viola tricolor; settings: Viola tricolor, 504 h, read-out: Post-emergence effect against VIOTR in %
Procedure, shortened: as §1

[15] = tested on: KCHSC; test: as above; type: in vivo; settings: for pest or weed control at 80 g/ha / pest or weed control at 320 g/ha: 504 h, read-out: Post-emergence effect against KCHSC in %
Procedure, shortened: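 Greenhouse plants in sandy loam, sprayed post-emergence at the one-leaf stage (2–3 weeks after sowing) with WP or EC formulations in water plus 0.5% additive at 600 l/ha. Rates 20 to 320 g/ha. Activity rated visually after about 3 weeks against untreated controls (0% like control, 100% dead).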

Structure (SMILES)	plant injury at 20 g/ha [1] [%]	pest or weed control at 80 g/ha [2] [%]	pest or weed control at 320 g/ha [2] [%]	pest or weed control at 320 g/ha [3] [%]	pest or weed control at 320 g/ha [4] [%]	pest or weed control at 80 g/ha [5] [%]	pest or weed control at 320 g/ha [5] [%]	pest or weed control at 80 g/ha [6] [%]	pest or weed control at 320 g/ha [6] [%]	pest or weed control at 320 g/ha [7] [%]	pest or weed control at 320 g/ha [8] [%]	pest or weed control at 320 g/ha [9] [%]	pest or weed control at 80 g/ha [10] [%]	pest or weed control at 320 g/ha [10] [%]	pest or weed control at 80 g/ha [11] [%]	pest or weed control at 320 g/ha [11] [%]	pest or weed control at 320 g/ha [12] [%]	pest or weed control at 320 g/ha [13] [%]	pest or weed control at 80 g/ha [14] [%]	pest or weed control at 320 g/ha [14] [%]	other results
CCOC(=O)C(OC)Oc1nn(-c2ncccc2F)c(-c2ccc(F)nc2)c1Br (stereo not drawn) [Example I-14]	0	90	90	90	80	90	90	80	90	90	90	90	80	90	80	80	90	90	90	90	pest or weed control at 80 g/ha [7]: 90%; pest or weed control at 80 g/ha [8]: 90%; pest or weed control at 80 g/ha ([15]; 80 g/ha): 90%; pest or weed control at 320 g/ha ([15]; 320 g/ha): 90%
COC(=O)C(OC)Oc1nn(-c2ncccc2F)c(-c2ccc(F)nc2)c1C1CC1 (stereo not drawn) [Example I-40]	0	90	90	90	80	80	90	–	90	90	90	80	90	90	90	90	90	90	90	90	Post-emergence effect at 320 g/ha against ZEAMX in % ([1]; 320 g/ha): 0%; plant injury at 80 g/ha [1]: 0%; pest or weed control at 80 g/ha [7]: 90%; pest or weed control at 80 g/ha [8]: 90%; Post-emergence effect against KCHSC in % ([15]; 80 g/ha): 90%; Post-emergence effect against KCHSC in % ([15]; 320 g/ha): 90%
COC(=O)C(OC)Oc1nn(-c2ncccc2F)c(-c2ccc(F)nc2)c1C(F)(F)F (stereo not drawn) [Example I-41, Methyl {[1-(3-fluoropyridin-2-yl)-5-(6-fluoropyridin-3-yl)-4-(trifluoromethyl)-1H-pyrazol-3-yl]oxy}(methoxy)acetate]	0	90	90	90	90	80	90	80	90	90	90	80	90	90	90	90	90	90	80	90	plant injury at 80 g/ha [1]: 0%; pest or weed control at 80 g/ha ([15]; 80 g/ha): 80%; pest or weed control at 320 g/ha ([15]; 320 g/ha): 90%

Reference: patent US20240391862A1, “(1,4,5-TRISUBSTITUTED-1H-PYRAZOL-3-YL)OXY-2-ALKOXY ALKYL ACIDS AND THEIR DERIVATIVES, THEIR SALTS AND THEIR USE AS HERBICIDAL AGENTS” (Bayer AKtiengesellschaft, priority 2021, published 2024)
